According to patent US4027039A (priority 1975, dated 1977):
Like-named read-outs stand apart in the source and are kept apart here.

How the values were obtained:
[1] = test system: Influenza B Massachusetts virus; experiment: Influenza B Mass. in mice, oral; late read day 5 (Table 39), 7 (Table 40), 11 (Tables 61, 65); control fraction 16/20 (Table 61), else 100%; type: in vivo, mouse
Method: A portion of a commercially available sample of amantadine was recrystallized from isopropanol. The activity of the material against Influenza B Mass. was tested for the sample as obtained, the recrystallized portion, and the mother liquor obtained from recrystallizing the portion.

[2] = test system: Influenza, Ann Arbor virus; experiment: Influenza Ann Arbor in mice, oral; schedule by table; late read day 5 (Tables 15, 25, 29, 30), 6 (18, 20, 22, 23, 26, 27, 28, 54), 7 (14, 19, 21, 24, 53, 56), 8 (16, 17, 51), 9 (11, 55); type: in vivo, mouse

## NC(=S)NN=C1CCCCC1 [Cyclohexanone, thiosemicarBazone, Cyclohexanone, thiosemicarbazone]
[1]; total dose .000005 μg (5 pg)
  No. animals surviving after 5 days (Table 61: 11 days): 7
  No. animals surviving when 100% (Table 61: 16/20) of controls are dead: 5
  Survivors: 5
[1]; total dose .00005 μg (50 pg)
  No. animals surviving after 5 days (Table 61: 11 days): 4
  No. animals surviving when 100% (Table 61: 16/20) of controls are dead: 3
  Survivors: 2
[1]; total dose .0005 μg (500 pg)
  No. animals surviving after 5 days (Table 61: 11 days): 2
  No. animals surviving when 100% (Table 61: 16/20) of controls are dead: 2
  Survivors: 2
[1]; total dose .005 μg (5 ng)
  No. animals surviving after 5 days (Table 61: 11 days): 3
  No. animals surviving when 100% (Table 61: 16/20) of controls are dead: 2
  Survivors: 2
[1]; total dose .05 μg (50 ng)
  No. animals surviving after 5 days (Table 61: 11 days): 7
  No. animals surviving when 100% (Table 61: 16/20) of controls are dead: 7
  Survivors: 5
[1]; total dose .5 μg (500 ng)
  No. animals surviving after 5 days (Table 61: 11 days): 2
  No. animals surviving when 100% (Table 61: 16/20) of controls are dead: 1
  Survivors: 1

## NNC(=S)NC12CC3CC(CC(C3)C1)C2
Herpes virus; total dose 4 pg
  No. animals surviving when 18/20 of controls are dead: 1
  Survivors: 1
Herpes virus; total dose 40 pg
  No. animals surviving when 18/20 of controls are dead: 1
  Survivors: 1
Herpes virus; total dose 400 pg
  No. animals surviving when 18/20 of controls are dead: 3
  Survivors: 3
Herpes virus; total dose 4 ng
  No. animals surviving when 18/20 of controls are dead: 2
  Survivors: 2
Herpes virus; total dose 40 ng
  No. animals surviving when 18/20 of controls are dead: 2
  Survivors: 2
Herpes virus; total dose 400 ng
  No. animals surviving when 18/20 of controls are dead: 3
  Survivors: 3

## NNc1nncc2ccccc12 [Hydralazine, hydralazine, reference compound]
Herpes virus; mouse, in vivo
  activity in words: effective

## NC12CC3CC(CC(C3)C1)C2 [Recrystallized amantadine, amantadine, reference compound]
[1]; total dose 60 ng
  No. animals surviving after 11 days: 4
  Survivors: 2
[1]; total dose 600 ng
  No. animals surviving after 11 days: 3
  Survivors: 3
[1]; total dose 6 μg
  No. animals surviving after 11 days: 5
  Survivors: 5
[1]; total dose 60 μg
  No. animals surviving after 11 days: 5
  Survivors: 2
[1]; total dose 600 μg
  No. animals surviving after 11 days: 3
  Survivors: 2
[1]; total dose 6 mg
  No. animals surviving after 11 days: 6
  Survivors: 4

## CCC(CC)=NNC(N)=S [3-pentanone, thiosemicarbazone]
[2]; total dose 30 pg
  No. animals surviving after 5-7 days: 2
  Survivors: 0
[2]; total dose 300 pg
  No. animals surviving after 5-7 days: 1
  Survivors: 0
[2]; total dose 3 ng
  No. animals surviving after 5-7 days: 3
  Survivors: 0
[2]; total dose 30 ng
  No. animals surviving after 5-7 days: 0
  Survivors: 0
[2]; total dose 300 ng
  No. animals surviving after 5-7 days: 3
  Survivors: 0
[2]; total dose 3 μg
  No. animals surviving after 5-7 days: 6
  Survivors: 1
[2]; total dose 12 μg
  No. animals surviving after 7 days: 1
  Survivors: 0
[2]; total dose 18 μg
  No. animals surviving after 7 days: 1
  Survivors: 1
[2]; total dose 24 μg
  No. animals surviving after 7 days: 0
  Survivors: 0
[2]; total dose 30 μg
  No. animals surviving after 5-7 days: 7
  Survivors: 0
[2]; total dose 60 μg
  No. animals surviving after 7 days: 1
  Survivors: 0
[2]; total dose 90 μg
  No. animals surviving after 7 days: 3
  Survivors: 0
[2]; total dose 120 μg
  No. animals surviving after 7 days: 1
  Survivors: 1
[2]; total dose 150 μg
  No. animals surviving after 7 days: 2
  Survivors: 1
[2]; total dose 300 μg
  No. animals surviving after 5-7 days: 4
  Survivors: 0

## N#CCC(=O)NN [Cyonacetic Acid Carbazide, Cyanoacetic Acid Hydrazide]
[1]; total dose .000005 μg (5 pg)
  No. animals surviving after 5 days (Table 61: 11 days): 3
  No. animals surviving when 100% (Table 61: 16/20) of controls are dead: 3
  Survivors: 3
[1]; total dose .00005 μg (50 pg)
  No. animals surviving after 5 days (Table 61: 11 days): 4
  No. animals surviving when 100% (Table 61: 16/20) of controls are dead: 4
  Survivors: 4
[1]; total dose .0005 μg (500 pg)
  No. animals surviving after 5 days (Table 61: 11 days): 8
  No. animals surviving when 100% (Table 61: 16/20) of controls are dead: 5
  Survivors: 5
[1]; total dose .005 μg (5 ng)
  No. animals surviving after 5 days (Table 61: 11 days): 2
  No. animals surviving when 100% (Table 61: 16/20) of controls are dead: 2
  Survivors: 1
[1]; total dose .05 μg (50 ng)
  No. animals surviving after 5 days (Table 61: 11 days): 4
  No. animals surviving when 100% (Table 61: 16/20) of controls are dead: 4
  Survivors: 3
[1]; total dose .5 μg (500 ng)
  No. animals surviving after 5 days (Table 61: 11 days): 5
  No. animals surviving when 100% (Table 61: 16/20) of controls are dead: 4
  Survivors: 4

## CCCC(C)=NNC(N)=S [2-pentanone, thiosemicarbazone]
[2]; total dose 30 pg
  No. animals surviving after 5-7 days: 2
  Survivors: 0
[2]; total dose 300 pg
  No. animals surviving after 5-7 days: 2
  Survivors: 0
[2]; total dose 3 ng
  No. animals surviving after 5-7 days: 2
  Survivors: 0
[2]; total dose 15 ng
  No. animals surviving after 7 days: 3
  Survivors: 0
[2]; total dose 22.5 ng
  No. animals surviving after 7 days: 0
  Survivors: 0
[2]; total dose 30 ng
  No. animals surviving after 5-7 days: 2
  Survivors: 0
[2]; total dose 75 ng
  No. animals surviving after 7 days: 1
  Survivors: 0
[2]; total dose 150 ng
  No. animals surviving after 7 days: 0
  Survivors: 0
[2]; total dose 225 ng
  No. animals surviving after 7 days: 3
  Survivors: 0
[2]; total dose 300 ng
  No. animals surviving after 5-7 days: 1
  Survivors: 0
[2]; total dose 750 ng
  No. animals surviving after 7 days: 2
  Survivors: 0
[2]; total dose 1.5 μg
  No. animals surviving after 7 days: 2
  Survivors: 0
[2]; total dose 2.25 μg
  No. animals surviving after 7 days: 1
  Survivors: 1
[2]; total dose 3 μg
  No. animals surviving after 5-7 days: 1
  Survivors: 0
[2]; total dose 30 μg
  No. animals surviving after 5-7 days: 1
  Survivors: 1
[2]; total dose 300 μg
  No. animals surviving after 5-7 days: 0
  Survivors: 0
